# Assay results taken from ChEMBL document CHEMBL2074213, “In vitro activities of native and designed peptide antibiotics against drug sensitive and resistant tumor cell lines” (Peptides, 2003).
# Bridge positions count the residues as written; N and C are the ends. Peptide text beside a SMILES is read from it.
# Biological target: ATP-dependent translocase ABCB1 (Homo sapiens, UniProt P08183)
# Experiment: TP_TRANSPORTER: drug resistance in MCF-7/Dox cells
# Assay type: functional, cell-based
# ATP-dependent translocase ABCB1, sequence (P08183 whole entry): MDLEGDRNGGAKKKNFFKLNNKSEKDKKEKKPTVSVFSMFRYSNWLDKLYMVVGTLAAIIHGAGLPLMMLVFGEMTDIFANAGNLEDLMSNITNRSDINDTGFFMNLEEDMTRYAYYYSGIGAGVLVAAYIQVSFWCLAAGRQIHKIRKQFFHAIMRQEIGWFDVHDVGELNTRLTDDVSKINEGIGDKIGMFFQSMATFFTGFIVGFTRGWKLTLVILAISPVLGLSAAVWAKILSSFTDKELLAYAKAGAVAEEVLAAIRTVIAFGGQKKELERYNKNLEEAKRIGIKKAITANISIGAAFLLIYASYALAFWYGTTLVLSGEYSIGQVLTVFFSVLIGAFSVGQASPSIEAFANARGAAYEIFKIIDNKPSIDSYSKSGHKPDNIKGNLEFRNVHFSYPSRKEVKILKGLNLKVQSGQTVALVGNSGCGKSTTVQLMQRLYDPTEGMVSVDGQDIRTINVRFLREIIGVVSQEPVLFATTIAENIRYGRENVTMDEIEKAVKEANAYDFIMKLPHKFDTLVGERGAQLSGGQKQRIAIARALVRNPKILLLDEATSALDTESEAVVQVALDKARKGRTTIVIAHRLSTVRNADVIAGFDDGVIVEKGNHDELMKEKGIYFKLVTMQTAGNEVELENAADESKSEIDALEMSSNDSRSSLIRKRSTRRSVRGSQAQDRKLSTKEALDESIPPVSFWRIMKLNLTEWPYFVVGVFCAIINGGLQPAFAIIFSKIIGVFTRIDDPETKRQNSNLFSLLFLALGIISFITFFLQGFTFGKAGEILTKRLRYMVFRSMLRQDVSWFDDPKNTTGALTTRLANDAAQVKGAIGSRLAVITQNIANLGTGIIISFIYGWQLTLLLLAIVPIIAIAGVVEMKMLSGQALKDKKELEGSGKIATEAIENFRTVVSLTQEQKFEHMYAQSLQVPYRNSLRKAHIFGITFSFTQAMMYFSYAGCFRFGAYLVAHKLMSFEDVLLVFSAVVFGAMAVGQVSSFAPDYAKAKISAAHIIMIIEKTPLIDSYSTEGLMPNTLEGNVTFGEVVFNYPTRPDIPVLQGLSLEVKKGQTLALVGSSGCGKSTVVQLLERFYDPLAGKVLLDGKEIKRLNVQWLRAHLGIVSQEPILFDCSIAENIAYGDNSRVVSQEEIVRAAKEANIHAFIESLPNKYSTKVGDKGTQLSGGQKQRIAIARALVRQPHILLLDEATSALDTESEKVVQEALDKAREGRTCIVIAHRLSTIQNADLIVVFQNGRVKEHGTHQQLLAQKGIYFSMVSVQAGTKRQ
row,Molecule,Activity
1,COc1cccc2c1C(=O)c1c(O)c3c(c(O)c1C2=O)C[C@@](O)(C(=O)CO)C[C@@H]3O[C@H]1C[C@H](N)[C@H](O)[C@H](C)O1 [DOXORUBICIN],substrate [+]
2,CC(=O)O[C@H]1C(=O)[C@@]2(C)[C@H]([C@H](OC(=O)c3ccccc3)[C@]3(O)C[C@H](OC(=O)[C@H](O)[C@@H](NC(=O)c4ccccc4)c4ccccc4)C(C)=C1C3(C)C)[C@]1(OC(C)=O)CO[C@@H]1C[C@@H]2O [PACLITAXEL],substrate [+]
3,CC[C@H](C)[C@@H]1NC(=O)[C@H](CCCCN)NC(=O)[C@@H](NC(=O)[C@@H](NC(=O)[C@@H](NC(=O)[C@@H](NC(=O)[C@@H]2CCCN2C(=O)[C@H](CC(C)C)NC(=O)[C@H](Cc2ccccc2)NC(=O)[C@H](CC(N)=O)NC(=O)[C@H](C)NC(=O)[C@H](C)NC(=O)[C@H](CC(C)C)NC(=O)CNC(=O)[C@H](C)NC(=O)[C@H](CC(C)C)NC(=O)[C@H](CC(C)C)NC(=O)[C@@H]2CCCN2C(=O)[C@H](CC(C)C)NC(=O)[C@@H](N)Cc2ccccc2)[C@@H](C)O)[C@@H](C)CC)[C@@H](C)CC)CSSC[C@@H](C(=O)O)NC(=O)[C@H](CCCCN)NC(=O)[C@H](Cc2ccc(O)cc2)NC(=O)[C@H](CO)NC1=O [GAEGURIN 6] (H-FLPLLAGLAANFLPTIICKISYKC-OH; disulfide 18-24),is not a substrate [-]
4,H-FLGALFKALSKLL-OH,is not a substrate [-]
5,H-FLGALFKALCKLL-OH,is not a substrate [-]
